Data reported in patent publication US12605397B2, “Deoxy-cytidine or uridine derivatives for use in cancer therapies” (HEMISPHERIAN AS, priority 2019, dated 2026).

Assays:
MCF-7 cells = test: Survival assay (MTT), MCF-7; assay type: cell-based, human; details: Homo sapiens, MCF7
Description: (§1) Cells were passed between 70 and 90% confluence.
(§2) Cells were incubated with the drugs for 72 hours.

G7 cells = test: Survival assay (MTT), G7; assay type: cell-based, human; details: Homo sapiens, G7, Glioma, Grade IV, 72 hours
Description: (§3) Primary glioma neural stem (GNS) cells (G7, G14, G144, G166) were cultured on poly-D-lysine (Merck Millipore, Cat. Nr. A-003-E) and laminin (R&D Systems, Cat.Nr. 3446-005-01) coated plates in neural stem cell medium (50% DMEM-F12 (Thermofisher, Cat. Nr. 21041025), 50% neurobasal medium (Thermofisher, Cat. Nr. 10888-022), N2 (Life Technologies, Cat. Nr. A-003-E) and B27 supplements (Life Technologies, Cat.Nr. 12587010), 1 mM sodium pyruvate (Life Technologies, Cat.Nr. 11360-039), 2 mM glutamax (Life Technologies, Cat. Nr. 35050038), 1 mM HEPES (Fisher Scientific, Cat. Nr. BP299-1), 0.1 mM β-mercaptoethanol (Life Technologies, Cat. Nr. 31350010), 1× nonessential amino acids (Life Technologies, Cat. Nr. 11140-035), 0.006% bovine serum albumin (Sigma, Cat. Nr. A8577-10ML), 4 μg/ml heparin (Sigma, Cat. Nr. H3149-25KU), 100 U/ml penicillin, 100 μg/ml streptomycin, 20 ng/ml hEGF (R&D Systems, Cat. Nr. 236-EG-200), 10 ng/ml bFGF (Peprotech, Cat. Nr. 100-18B).
as §2

G26 cells = test: Survival assay (MTT), G26; assay type: cell-based, human; details: Homo sapiens, G26, Glioma, Grade IV, 72 hours
Description: as §1, §2

Arpe19 cells = test: Survival assay (MTT), Arpe19; assay type: cell-based, human; details: Homo sapiens
Description: as §2
(§4) The present inventors further investigated the extent to which these compounds kill normal human cells; low cytotoxicity against normal human cells is advantageous property for anti-cancer agents. The cytotoxicity of these compounds in various normal human cell lines was therefore investigated (Table 3). Cells were grown and the survival assay was performed as described above (Materials and Methods).

MRC5 cells = test: Survival assay (MTT), MRC5; assay type: cell-based, human; details: Homo sapiens
Description: as §1, §2, §4

U87-MG = test: Glioblastoma Multiforme mouse xenograft model; assay type: in vivo, mice; details: five doses; for tumour volume: over all time points
Description: Standard agent, Temozolomide, was provided by Oslo University Hospital in powder form and was formulated fresh prior to each dose by first adding appropriate volume of DMSO to pre-weighed compound, then adding appropriate volumes of Solutol (RTM) and PBS (5% DMSO/5% Solutol (RTM)/90% PBS). […] Standard agent, Temozolomide, was administered at a dose volume of 10 mL/kg.
The human brain malignant glioma cell line, U87-MG (ATCC HTB-14, epithelial glioblastoma), was obtained from American Type Culture Collection (ATCC). The cells were cultured in Minimum essential medium containing 5% fetal bovine serum (FBS) at 37° C., with 5% CO2 in an incubator.
Female (nu/nu) nude mice aged 6-7 weeks obtained from BioLasco Taiwan (under Charles River Laboratories Licensee) were used. The animals were housed in individually ventilated cages (IVC, 36 Mini Isolator system). The allocation for 5 animals was 27×20×14 in cm. All animals were maintained in a hygienic environment under controlled temperature (20-24° C.) and humidity (30%-70%) with 12-hour light/dark cycle.
Viable U87-MG (ATCC HTB-14) cells were subcutaneously (SC) implanted (5×10^6 cells/mouse in PBS at 0.2 mL/mouse) into the right flank of female nu/nu mice. When group mean tumor volumes reached approximately 129 mm^3 to 131 mm^3, tumor implanted mice were divided into four treatment groups, each group containing eight animals, and dose administrations were initiated (denoted as Day 1).
5-hydroxymethyl-2′-deoxycytidine, 5-formyl-2′-deoxycytidine at 2000 mg/kg and corresponding vehicle (5% DMSO/5% Solutol (RTM)/90% PBS) were administered intraperitoneally (IP) once every three days for a total of five administrations. Temozolomide at 40 mg/kg was administered orally (PO) once daily for five total administrations.
The tumor volume, body weight, mortality, and signs of overt toxicity were monitored and recorded twice weekly for 29 days. Tumor volume (mm^3) was estimated according to the ellipsoid formula as: length×(width)^2×0.5. Tumor growth inhibition (T/C) was calculated by the following formula:
[formula] • Cn: Tumor weight measured on Day n in the control group • Tn: Tumor weight measured on Day n in the treated group • % T/C value≤42% was considered significant antitumor activity (#). Percent tumor growth inhibition (TGI) was also calculated by the following formula:
[formula] • % TGI value≥58% was considered significant antitumor activity (#).
Two-way ANOVA (RTM) followed by Bonferroni test was also used to ascertain the statistically significant difference compared to the negative control group during study; Day 1 through to Day 29. Differences are considered significant at p<0.05 (*).
5-formyl-2′deoxycytidine and 5-hydroxymethyl-2′-deoxycytidine were evaluated in a Glioblastoma Multiforme mouse xenograft model as described above (Materials and Methods). U87-MG cells were injected subcutaneously into the flank of nude mice. Tumours were allowed to form as described above (Materials and Methods). After the tumours reached between 129 mm^3 and 131 mm^3 animals were divided into 4 groups—two treatment groups, a negative control group and a positive control group. The two treatment groups were 5-formyl-2′-deoxycytidine and 5-hydroxymethyl-2′-deoxycytidine. […]
The tumour volume (FIG. 1C), body weight (FIG. 1D), mortality, and signs of overt toxicity were monitored and recorded twice weekly for 29 days. […]

G14 cells = test: Survival assay (MTT), G14; assay type: cell-based, human; details: Homo sapiens, G14, Glioma, Grade IV, 72 hours
Description: as §3, §2

CB152 cells = test: Survival assay (MTT), CB152; assay type: cell-based, human; details: Homo sapiens, CB152, Glioma, Grade IV, 72 hours
Description: as §1, §2

SK-OV-3 cells = test: Survival assay (MTT), SK-OV-3; assay type: cell-based, human; details: Homo sapiens
Description: as §1, §2

[1] = MCF-7, Epithelial Adenocarcinoma (Breast), 72 hours, MTT
[2] = MCF-7, Tables 6 and 7, unit inferred
[3] = ARPE-19, 72 h, Arpe19, Normal, Ectoderm, 72 hours, MTT
[4] = ARPE-19, ARPE19, Tables 6 and 7, unit inferred
[5] = MRC5, 72 h, MRC5, Normal, Lung, 72 hours, MTT
[6] = MRC5, MRC5, Tables 6 and 7, unit inferred
[7] = 2000 mg/kg IP every three days, end of study (Day 29)
[8] = SK-OV-3, Ovarian Adenocarcinoma, 72 hours, MTT
[9] = SK-OV-3, Tables 6 and 7, unit inferred

| Compound | IC50 (MCF-7 cells; [1]) | IC50 (MCF-7 cells; [2]) | IC50 (G7 cells) | IC50 (G26 cells) | IC50 (Arpe19 cells; [3]) | IC50 (Arpe19 cells; [4]) | IC50 (MRC5 cells; [5]) | IC50 (MRC5 cells; [6]) | tumour growth inhibition (TGI) (U87-MG; [7]) | tumour volume (U87-MG; 2000 mg/kg IP every three days) | IC50 (G14 cells) | IC50 (CB152 cells) | IC50 (SK-OV-3 cells; [8]) | IC50 (SK-OV-3 cells; [9]) | tumour growth inhibition (TGI) (U87-MG; positive control, 40 mg/kg PO once daily, end of study) |
| --- | --- | --- | --- | --- | --- | --- | --- | --- | --- | --- | --- | --- | --- | --- | --- |
| Nc1nc(=O)n([C@H]2C[C@H](O)[C@@H](CO)O2)cc1CO [2d5hmC, 5-hydroxymethyl-2′-deoxycytidine] | > 25 µM | ≥ 25 µM | 11.9 µM | > 100 µM | > 25 µM | ≥ 25 µM | > 25 µM | ≥ 25 µM | 93% | marked decrease in tumour volume | 25.4 µM | > 100 µM | > 25 µM | ≥ 25 µM |  |
| Cn1nnc2c(C(N)=O)ncn2c1=O [Temozolomide, 4-methyl-5-oxo-2,3,4,6,8-pentazabicyclo[4.3.0]nona-2,7,9-triene-9-carboxamide, reference compound] | > 25 µM |  | 6.18 µM | 7.34 µM | > 25 µM |  | > 25 µM |  |  |  | 6.02 µM | > 100 µM | > 25 µM |  | 94% |
| Nc1nc(=O)n([C@H]2C[C@H](O)[C@@H](CO)O2)cc1C=O [2d5fC, 5-formyl-2′-deoxycytidine] | 0.866 µM | 0.866 µM | 19.2 µM | 28.1 µM | > 25 µM | ≥ 25 µM | > 25 µM | ≥ 25 µM | 83% | marked decrease in tumour volume | > 100 µM | > 100 µM | 9.69 µM | 9.69 µM |  |
